The values that follow come from patent US20140100241A1 (priority 2007, published 2014).

Data set [1] has as its system patients with opiate dependence. The data set can be described thus: Clinical detoxification of opiate-dependent patients with decreasing buprenorphine troche doses (microdose protocol).
The conditions of data set [2]: cited from earlier work.

Like-named read-outs stand apart in the source and are kept apart here.

On to `O=C1CC[C@@]2(O)[C@H]3Cc4ccc(O)c5c4[C@@]2(CCN3CC2CC2)[C@H]1O5` [Naltrexone], for which, in data set [1] (Naltrexone administered at 12.5 mg), the “return of withdrawal symptoms after the end of buprenorphine treatment” value is “up to five days”.

As for `COC12CCC3(CC1C(C)(O)C(C)(C)C)C1Cc4ccc(O)c5c4C3(CCN1CC1CC1)C2O5` [Buprenorphine, (2S)-2-[(−)-(5R,6R,7R,14S)-9α-cyclopropylmethyl-4,5-epoxy-6,14-ethanomorphinan-7-yl]-3-hydroxy-6-methoxy-3,3-dimethylbutan-2-ol], the mean half-life in data set [2] (in vivo) and in data set [2] (taken sublingually) was 35 to 37 h in each case. For the same compound, the “elimination half-life (mean)” value in data set [2] (mean) was 37 h. In addition, in data set [2] (oral administration), the first-pass metabolism result is recorded as “very high”. Further, the elimination half-life in data set [2] (range) is 20 to 73 h. The “withdrawal symptoms after dose reduction” value in data set [1] (2.0 mg dose reduction, experienced or chronic user of narcotic type medications) was “significant withdrawal symptoms”. Further, in data set [1] (cut-off of 2.0 mg), the “time to return of withdrawal symptoms” value is at most 24 h. The treatment outcome in data set [1] (fractional dose of 1.5 mg after a final 3.0 mg dose) is “unsuccessful”. Moreover, in data set [1] (increased number of sub 0.1 mg doses, treatment three or more months), the “patients transitioned safely and in a symptomless manner from buprenorphine to the blocker Naltrexone” value is on record as around 100%. Moreover, the “completion rate (completion means a narcotic free state)” value in data set [1] (microdose methods over an extended period, months rather than days or weeks) is reported as “approximately 96%”. Further, the “duration of withdrawal symptoms” value in data set [1] (previous treatment regimens, doses 8.0 to 3.0 mg) was “three to five days”. Also, the “withdrawal symptoms reported by patients” value in data set [1] (serial doses of 0.25 mg) is recorded as “perceptible and, in some cases, intolerable withdrawal symptoms”. Moreover, the success rate entry in data set [1] (when taken to completion of the dose reduction schedule) was “greater than 90%”.

As for `CN1C(=O)CN=C(c2ccccc2)c2cc(Cl)ccc21` [Diazepam], the “observed effect in the early phase of withdrawal” value in data set [1] (outpatients) is listed as “too dis-inhibiting”.
